Data taken from patent US10093611B2, “Benzocycloalkenes as antifungal agents” (Bayer Intellectual Property GmbH, priority 2010, dated 2018).

Tested on: Blumeria graminis fsp. hordei
Assay: In vivo preventive test on Blumeria graminis (barley)
Details: 500 ppm of active ingredient, evaluated 7 days after inoculation
Description: EXAMPLE B: IN VIVO PREVENTIVE TEST ON BLUMERIA GRAMINIS (BARLEY) Solvent: 49 parts by weight of N,N-dimethylacetamide Emulsifier: 1 part by weight of alkylaryl polyglycol ether To produce a suitable preparation of active compound, 1 part by weight of active compound or active compound combination is mixed with the stated amounts of solvent and emulsifier, and the concentrate is diluted with water to the desired concentration. To test for preventive activity, young plants are sprayed with the preparation of active compound or active compound combination at the stated rate of application. After the spray coating has been dried, the plants are dusted with spores of Blumeria graminis fsp. hordei. The plants are placed in the greenhouse at a temperature of approximately 18° C. and a relative atmospheric humidity of approximately 80% to promote the development of mildew pustules. The test is evaluated 7 days after the inoculation. 0% means an efficacy which corresponds to that of the untreated control, while an efficacy of 100% means that no disease is observed. Under these conditions, total protection is observed at a dose of 500 ppm of active ingredient with the following compounds from table B: […]

| SMILES | Efficacy [%] |
| --- | --- |
| Cc1nn(C)c(F)c1C(=O)N(C1CC1)C(C)C1Cc2ccccc2C1 (centres unmarked) [Example 11] | 100 |
| CC(C1CCc2ccccc2C1)N(C(=O)c1c(C(F)F)nn(C)c1F)C1CC1 (centres unmarked) [Example 16] | 100 |
| CCc1nn(C)c(F)c1C(=O)N(C1CC1)C(C)C1Cc2ccccc2C1 (centres unmarked) [Example 12] | 100 |
| CC(C1Cc2ccccc2C1)N(C(=O)c1c(C(F)F)nn(C)c1F)C1CC1 (centres unmarked) [Example 14, N-cyclopropyl-3-(difluoromethyl)-N-[1-(indan-2-yl)ethyl]-5-fluoro-1-methyl-1H-pyrazole-4-carboxamide] | 100 |
| CC(C1Cc2ccccc2C1)N(C(=O)c1cn(C)nc1C(F)F)C1CC1 (centres unmarked) [Example 13] | 100 |
